This is an account of results in patent US10125126B2, “N-cycloalkyl-N-[(heterocyclylphenyl)methylene]-(thio)carboxamide derivatives” (BAYER CROPSCIENCE AG, priority 2012, dated 2018).

As usually defined, the logP is a log measure of how a compound divides between an organic and an aqueous phase.

One series can be described thus: log P by HPLC on a reversed-phase column (C 18), EEC Directive 79/831 Annex V.A8. Type of series: physicochemical. The conditions noted are these: HPLC on reversed-phase column (C 18), 40° C., 0.1% aqueous formic acid and acetonitrile, linear gradient 10% to 90% acetonitrile. Here is the method: In table 1, the log P values were determined in accordance with EEC Directive 79/831 Annex V.A8 by HPLC (High Performance Liquid Chromatography) on a reversed-phase column (C 18), using the method described below: Temperature: 40° C.; Mobile phases: 0.1% aqueous formic acid and acetonitrile; linear gradient from 10% acetonitrile to 90% acetonitrile. Calibration was carried out using unbranched alkan-2-ones (comprising 3 to 16 carbon atoms) with known log P values (determination of the log P values by the retention times using linear interpolation between two successive alkanones). lambda-max-values were determined using UV-spectra from 200 nm to 400 nm and the peak values of the chromatographic signals.
In turn, `Cc1ccc(-c2cnn(C)c2)c(CN(C(=O)c2cn(C)nc2C(F)F)[C@@H]2C[C@H]2C)c1` (relative stereo) [I.62] showed a logP of 2.66.
On the same count and under the same terms, the same measure for `Cc1ccc(-c2cnn(C)c2)c(CN(C(=O)c2c(C(F)F)nn(C)c2F)[C@@H]2C[C@H]2C)c1` (relative stereo) [I.63]: 2.82.
Still for that read-out and setting: the result for `Cc1ccc(-c2cnn(C)c2)c(CN(C(=O)c2c(C(F)F)nn(C)c2Cl)[C@@H]2C[C@H]2C)c1` (relative stereo) [I.64] reads 2.86; that for `Cn1nc(C(F)F)c(C(=O)N(Cc2ccccc2C2COC2)C2CC2)c1Cl` [I.2], 1.56.
Still for that read-out and setting: the result for `Cn1nc(C(F)F)c(C(=O)N(Cc2c(C3(C)CO3)ccc(Cl)c2Cl)C2CC2)c1F` (stereo not drawn) [I.9] reads 3.55; that for `Cn1nc(C(F)F)c(C(=O)N(Cc2c(C3(C)CO3)ccc(Cl)c2F)C2CC2)c1Cl` (stereo not drawn) [I.10], 3.37; that for `Cn1nc(C(F)F)c(C(=O)N(Cc2c(C3(C)CO3)ccc(Cl)c2Cl)C2CC2)c1Cl` (stereo not drawn) [I.11], 3.67.
Consider `Cc1ccc(C2(C)CO2)c(CN(C(=O)c2c(C(F)F)nn(C)c2F)C2CC2)c1F` (stereo not drawn) [I.12], for which the logP stood at 3.17.
Still for that read-out and setting: the result for `Cn1nc(C(F)F)c(C(=O)N(Cc2c(C3(C)CO3)ccc(Cl)c2F)C2CC2)c1F` (stereo not drawn) [I.13] reads 3.29; that for `Cn1nc(C(F)F)c(C(=O)N(Cc2cc(C34CCCC3O4)ccc2Cl)C2CC2)c1F` (stereo not drawn) [I.17], 3.59; that for `Cn1nc(C(F)F)c(C(=O)N(Cc2cc(Cl)ccc2C23CCCC2O3)C2CC2)c1F` (stereo not drawn) [I.18], 3.60.
Compound `Cn1nc(C(F)F)c(C(=O)N(Cc2ccccc2C23CCCC2O3)C2CC2)c1F` (stereo not drawn) [I.19] had a logP of 3.12.
`Cn1nc(C(F)F)c(C(=O)N(Cc2ccccc2C2(C)OCCO2)C2CC2)c1F` [I.20] had a logP of 2.94.
Compound `Cc1ccc(CN(C(=O)c2c(C(F)F)nn(C)c2F)C2CC2)c(C2(C)OCCO2)c1` [I.21] gave a lipophilicity (logP) of 3.25.
Still for that read-out and setting: the same measure for `Cn1nc(C(F)F)c(C(=O)N(Cc2cc(C34CCCCC3O4)ccc2Cl)C2CC2)c1F` (stereo not drawn) [I.22]: 3.99; for `Cn1nc(C(F)F)c(C(=O)N(Cc2cc(Cl)ccc2C23CCCCC2O3)C2CC2)c1F` (stereo not drawn) [I.23]: 3.99; for `Cn1nc(C(F)F)c(C(=O)N(Cc2ccccc2C23CCCCC2O3)C2CC2)c1F` (stereo not drawn) [I.24]: 3.48.
In turn, `Cn1nc(C(F)F)c(C(=O)N(Cc2cc(Cl)ccc2C23CCCCCC2O3)C2CC2)c1F` (stereo not drawn) [I.25] had a logP of 4.44.
`Cn1nc(C(F)F)c(C(=O)N(Cc2ccccc2C23CCCCCC2O3)C2CC2)c1F` (stereo not drawn) [I.26] displayed a lipophilicity (logP) of 3.94.
Same read-out and setting: the same measure for `Cn1nc(C(F)F)c(C(=O)N(Cc2ccccc2-c2ccco2)C2CC2)c1Cl` [I.30]: 3.46; for `O=C(c1ccsc1I)N(Cc1ccccc1-c1ccco1)C1CC1` [I.33]: 4.01.
`Cc1ccc(-c2ccoc2)c(CN(C(=O)c2cn(C)nc2C(F)F)C2CC2)c1` [I.38]: the logP came out at 3.19.
On the same count and under the same terms, the same measure for `O=C(c1ccsc1I)N(Cc1cc(-c2ccco2)ccc1Cl)C1CC1` [I.41]: 4.61; for `Cn1cc(C(=O)N(Cc2ccccc2-c2ccco2)C2CC2)c(C(F)F)c1` [I.42]: 3.44; for `Cc1nc(C(F)F)c(C(=O)N(Cc2cc(-c3ccco3)ccc2Cl)C2CC2)s1` [I.46]: 3.99.
On the same count and under the same terms, the same measure for `Cc1ccc(-c2ccn(C)c2)c(CN(C(=O)c2c(C(F)F)nn(C)c2F)C2CC2)c1` [I.51]: 3.55; for `Cc1ccc(-c2ccn(C)c2)c(CN(C(=O)c2cn(C)nc2C(F)F)C2CC2)c1` [I.52]: 3.19; for `Cc1ccc(-c2ccn(C)c2)c(CN(C(=O)c2c(C(F)F)nn(C)c2Cl)C2CC2)c1` [I.53]: 3.69.
Still for that read-out and setting: the result for `CC(C)c1ccc(-c2cnn(C)c2)cc1CN(C(=O)c1c(C(F)F)nn(C)c1F)C1CC1` [I.65] reads 3.13; that for `Cn1nc(C(F)F)c(C(=S)N(Cc2ccccc2-c2ccsc2)C2CC2)c1Cl` [I.80], 4.39.
Turning to `Cn1nc(C(F)F)c(C(=S)N(Cc2ccccc2-c2cccs2)C2CC2)c1Cl` [I.81], the logP turned out to be 4.49.
Same read-out and setting: the same measure for `Cn1nc(C(F)F)c(C(=O)N(Cc2cc(-c3cccs3)ccc2Cl)C2CC2)c1Cl` [I.85]: 4.29; for `O=C(c1ccsc1I)N(Cc1cc(-c2ccsc2)ccc1Cl)C1CC1` [I.89]: 4.78.
On the same count and under the same terms, the same measure for `Cn1cc(C(=O)N(Cc2cc(-c3cccs3)ccc2Cl)C2CC2)c(C(F)F)c1` [I.90]: 4.16; for `O=C(c1ccsc1I)N(Cc1cc(-c2cccs2)ccc1Cl)C1CC1` [I.91]: 4.91; for `Cn1cc(C(=O)N(Cc2cc(-c3ccsc3)ccc2Cl)C2CC2)c(C(F)F)c1` [I.92]: 4.06.
In turn, `Cn1nc(C(F)F)c(C(=O)N(Cc2cc(-c3ccsc3)ccc2Cl)C2CC2)c1Cl` [I.94] showed a logP of 4.16.
`Cc1nc(C(F)F)c(C(=O)N(Cc2cc(-c3ccsc3)ccc2Cl)C2CC2)s1` [I.96] displayed a logP of 4.14.
The same measure, in the same setting: the same measure for `Cc1nc(C(F)F)c(C(=O)N(Cc2cc(-c3cccs3)ccc2Cl)C2CC2)s1` [I.97]: 4.26; for `Cc1cc(C(=O)N(Cc2cc(-c3ccsc3)ccc2Cl)C2CC2)c(C)o1` [I.98]: 4.59; for `Cc1cc(C(=O)N(Cc2cc(-c3cccs3)ccc2Cl)C2CC2)c(C)o1` [I.99]: 4.72.
The same measure, in the same setting: the same measure for `Cc1ccc(-c2cscc2C)c(CN(C(=O)c2c(C(F)F)nn(C)c2Cl)C2CC2)c1` [I.107]: 4.41; for `Cc1ccc(-c2cscc2C)c(CN(C(=O)c2cn(C)nc2C(F)F)C2CC2)c1` [I.109]: 3.83.
For the compound `Cc1cscc1-c1ccc(C(C)C)c(CN(C(=O)c2c(C(F)F)nn(C)c2F)C2CC2)c1` [I.110], the logP is 4.72.
On the same count and under the same terms, the same measure for `Cc1ccc(-c2c(C)nn(C)c2C)c(CN(C(=O)c2c(C(F)F)nn(C)c2F)C2CC2)c1` [I.115]: 2.71; for `Cc1ccc(-c2c(C)nn(C)c2C)c(CN(C(=O)c2cn(C)nc2C(F)F)C2CC2)c1` [I.116]: 2.45; for `Cc1ccc(-c2c(C)nn(C)c2C)c(CN(C(=O)c2c(C(F)F)nn(C)c2Cl)C2CC2)c1` [I.117]: 2.80.
The same measure, in the same setting: the same measure for `Cc1nn(C)c(C)c1-c1ccc(C(C)C)c(CN(C(=O)c2c(C(F)F)nn(C)c2F)C2CC2)c1` [I.118]: 3.23.
Still for that read-out and setting: the same measure for `COc1ccsc1-c1ccc(C)cc1CN(C(=O)c1cn(C)nc1C(F)F)C1CC1` [I.124]: 3.46.
The compound `COc1ccsc1-c1ccc(C)cc1CN(C(=O)c1c(C(F)F)nn(C)c1Cl)C1CC1` [I.126] displayed a logP of 3.99.
Still for that read-out and setting: the same measure for `COc1ccsc1-c1ccc(C)cc1CN(C(=O)c1c(C(F)F)nn(C)c1F)C1CC1C` (stereo not drawn) [I.127]: 4.21; for `COc1ccsc1-c1ccc(C)cc1CN(C(=O)c1c(C(F)F)nn(C)c1Cl)C1CC1C` (stereo not drawn) [I.128]: 4.41.
The same measure, in the same setting: the same measure for `Cc1ccc(-c2coc3ccccc23)c(CN(C(=O)c2c(C(F)F)nn(C)c2Cl)C2CC2)c1` [I.133]: 4.49; for `Cc1ccc(-c2coc3ccccc23)c(CN(C(=O)c2cn(C)nc2C(F)F)C2CC2)c1` [I.135]: 3.89; for `Cn1nc(C(F)F)c(C(=S)N(Cc2ccccc2-c2ccc(Cl)s2)C2CC2)c1Cl` [I.142]: 5.19.
As for `O=C(c1ccsc1I)N(Cc1cc(Cl)ccc1-c1ccc(Cl)s1)C1CC1` [I.147], the logP was determined as 5.68.
Still for that read-out and setting: the same measure for `Cc1ccc(-c2ccsc2Cl)c(CN(C(=O)c2c(C(F)F)nn(C)c2Cl)C2CC2)c1` [I.148]: 4.44; for `Cc1ccc(-c2ccsc2Cl)c(CN(C(=O)c2cn(C)nc2C(F)F)C2CC2)c1` [I.149]: 3.85; for `Cc1nc(C(F)F)c(C(=O)N(Cc2cc(-c3ccc(Cl)s3)ccc2Cl)C2CC2)s1` [I.151]: 5.00.
In turn, `Cc1cc(C(=O)N(Cc2cc(-c3ccc(Cl)s3)ccc2Cl)C2CC2)c(C)o1` [I.152] yielded a lipophilicity (logP) of 5.54.
Same read-out and setting: the result for `CC(C)c1ccc(-c2cn(C)c3ccccc23)cc1CN(C(=O)c1c(C(F)F)nn(C)c1F)C1CC1` [I.153] reads 4.74; that for `Cc1ccc(-c2csc3ccccc23)c(CN(C(=O)c2cn(C)nc2C(F)F)C2CC2)c1` [I.161], 4.15; that for `Cc1ccc(-c2csc3ccccc23)c(CN(C(=O)c2c(C(F)F)nn(C)c2Cl)C2CC2)c1` [I.162], 4.83.
On the same count and under the same terms, the same measure for `Cc1ccc(-c2csc3ccccc23)c(CN(C(=O)c2c(C(F)F)nn(C)c2F)C2CC2C)c1` (stereo not drawn) [I.163]: 4.98; for `Cc1ccc(-c2csc3ccccc23)c(CN(C(=O)c2c(C(F)F)nn(C)c2Cl)C2CC2C)c1` (stereo not drawn) [I.164]: 5.19.
Same read-out and setting: the result for `Cc1ccc(-c2csc3ccccc23)c(CN(C(=O)c2cn(C)nc2C(F)F)C2CC2C)c1` (stereo not drawn) [I.165] reads 4.46; that for `Cc1ccc(-c2csc3ccccc23)c(CN(C(=O)c2c(C(F)F)nn(C)c2F)C2CC2C)c1` (stereo not drawn) [I.166], 4.92.
In turn, `Cc1ccc(-c2csc3ccccc23)c(CN(C(=O)c2c(C(F)F)nn(C)c2Cl)C2CC2C)c1` (stereo not drawn) [I.167] yielded a lipophilicity (logP) of 5.05.
On the same count and under the same terms, the same measure for `Cn1nc(C(F)F)c(C(=O)N(Cc2ccccc2OC2CCOCC2)C2CC2)c1F` [I.169]: 2.80.

The series is the same for the next values; noted with them: HPLC, C 18, 40° C., 0.1% aqueous formic acid and acetonitrile.
`CC(C)c1ccc(Cl)cc1C=NO` [1-(5-chloro-2-isopropylphenyl)-N-hydroxymethanimine] registered a logP of 3.17.

The same series, now with this note: reversed-phase HPLC column (C 18), HPLC, C 18, 40° C., 0.1% aqueous formic acid and acetonitrile; read-out: logP.
Turning to `CC(C)c1ccc(Cl)cc1C=NO` [1-(5-chloro-2-isopropylphenyl)-N-hydroxymethanimine], the chromatographic logP was 2.9.
Same read-out and setting: the same measure for `CC(C)c1ccc(Cl)cc1CN` [1-(5-chloro-2-isopropylphenyl)methanamine]: 1.2.
